Experimental findings from paper PMC5449454, “Anti-Double-Stranded DNA IgG Participates in Renal Fibrosis through Suppressing the Suppressor of Cytokine Signaling 1 Signals” (Frontiers in Immunology, 2017) are described below.

Data set [1] has as its system anti-dsDNA IgG binding to SOCS1-KIR peptide. The data set can be described thus: Inhibition ELISA, anti-dsDNA IgG binding to SOCS1-KIR peptide. As to conditions: anti-dsDNA IgG 2 µg/ml pre-incubated with serially diluted peptide (0.04 to 80 µg/ml); three independent experiments. Also on record: species or system murine. The protocol: (§1) Common ELISAs (for binding to dsDNA or peptide) and inhibition ELISAs were performed as previously described ([8], [35]). Briefly, the KIR ELISA was carried out by adding biotinylated KIR peptide (DTHFRTFRSHSDYRRI, 5 µg/ml) to streptavidin-coated 96-well plates. For inhibition with KIR (or ALW) peptide, anti-dsDNA IgG (2 µg/ml) was pre-incubated with serially diluted peptide (from 0.04 to 80 µg/ml), and then transferred to antigen-coated 96-well plates. Alkaline phosphatase-conjugated goat anti-mouse IgG (2 µg/ml; Southern Biotech) was used as secondary antibody. Similarly, for inhibition with anti-dsDNA IgG, the FITC-labeled JAK2 loop peptide (LPQDKEYYKVKEP, 0.2 µg/ml) was pre-incubated with serially diluted anti-dsDNA IgG (from 0.02 to 20 µg/ml) before transfer to KIR-coated plates, which were detected for fluorescein intensity under a Perkin Elmer Reader (Winpact Scientific, Irvine, CA, USA). Cell surface ELISA was performed by growing mesangial cells in 96-well plates ([8], [35]). All peptides were synthesized by Sangon Biotech Company (Shanghai, China).
For orientation: In an ELISA, binding on a coated surface is turned into a signal by an enzyme label.

The test system of data set [2] is anti-dsDNA IgG binding to mesangial cells. The data set can be described thus: Inhibition cell surface ELISA, anti-dsDNA IgG binding to mesangial cells. The format is cell-based, murine. To be noted: anti-dsDNA IgG premixed with D-form or scrambled ALW peptide; three independent experiments. The protocol:
as §1

Data set [3] deals with anti-dsDNA IgG. The data set can be described thus: MALDI-TOF MS, catalysis of peptide by anti-dsDNA IgG. Also on record: species or system murine. As to conditions: peptide 2 µg/ml with IgG (molar ratio = 1:5), 37°C, 30 min, triplicate, versus L-form ALW. On the procedure: Matrix-assisted laser desorption/ionization–time of flight mass spectrometry was performed for identifying the sequences of peptide fragments. As described previously ([36]), an ABI 4800 Analyzer (AB Science, Foster City, CA, USA) was used for such analysis. The ALW (L-form or D-form) and KIR peptides (2 µg/ml) were mixed with anti-dsDNA IgG or control IgG (molar ratio = 1:5), respectively. The mixtures were incubated at 37°C for 30 min. Then, these samples were diluted in distilled water (1:100) and then mixed with the α-cyano-4-hydroxycinnamic acid matrix at a ratio of 1:1. Samples in triplicate were then loaded to the MALDI target. Mass spectrum was produced on 80 individual spectra of each spot.

Data set [4] relates to SOCS1, JAK2 and STAT1 in mesangial cells. The experiment in a line: SOCS1/JAK2/STAT1 proteins (IF, Western blotting), mesangial cells. The format is cell-based, murine. As to conditions: anti-dsDNA IgG 2 µg/ml premixed with peptide 1 µg/ml, 2 days. On the procedure: Immunofluorescence was carried out for both IgG deposition and SOCS1 expression in frozen sections. Routinely processed sections were incubated with rabbit anti-mouse SOCS1 and then fluorescein isothiocyanate (FITC)-conjugated goat anti-rabbit IgG (2 µg/ml; Southern Biotech, Birmingham, AL, USA) in order, or directly with goat anti-mouse IgG-FITC (Southern Biotech) alone. Sections were viewed under a digital fluorescent microscope (Carl Zeiss, Jena, Germany).
Immortal murine mesangial cells and glomerular endothelial cells (Jieqing Biotech, Wuhan, China) were cultured in RPMI 1640 medium supplemented with 10% fetal bovine serum ([8], [33]). Immortal murine proximal tubular epithelial cells (kindly provided by Dr. Cheng Pan, Wuhan University, China) were cultured in Dulbecco’s modified Eagle’s medium as described previously ([34]).
(§2) By using a HiTrap purification kit (GE Healthcare, Port Washington, NY, USA) ([8]), anti-dsDNA IgG was purified from the culture supernatants of murine WJ31 hydridoma clone (IgG2a; Jieqing Biotech). Control murine IgG (IgG2a; Jieqing Biotech) was verified by enzyme-linked immunosorbent assay (ELISA) to determine that there was no binding to DNA antigen (data not shown). Cells were starved routinely before the 2-day stimulation of anti-dsDNA IgG or control IgG (2 µg/ml). In some experiments, mesangial cells were stimulated with anti-dsDNA IgG (2 µg/ml) that was premixed with D-form (ALWPPNLHAWVP) or scrambled (PLPHNPWVLAAW) ALW peptide (1 µg/ml). The cell viability of three types of cells was measured using PrestoBlue viability reagent (Life Technologies, Carlsbad, CA, USA).
Fresh tissues and cell cultures were extracted for lysates with the addition of protease inhibitor cocktail (Thermo Scientific, Waltham, MA, USA). […] The band intensities were quantitated by ImageJ 1.61u software (National Institutes of Health, Bethesda, MD, USA) and normalized to β-actin values accordingly. The intensities of blank groups were set as 1 (baseline), and the relative intensities were calculated in other groups.
(In general: Immunoblotting shows a protein as a band on a membrane.)

Data set [5] relates to mesangial cells. The data set can be described thus: Cell viability (PrestoBlue), mesangial cells. It counts as cell-based, murine. To be noted: D-form ALW 1 µg/ml, 2 days. On the procedure:
as §2
(§3) Mesangial Glomerular Tubular cells endothelial epithelial
(§4) Supplementary Figure S7. Cell viability assays of kidney cells. (A) Murine cells were cultured in vitro, and received control or anti-dsDNA IgG stimulation (2 µg/ml, 2 days). (B) Similarly, these cells were also stimulated with scrambled or D-form ALW peptide (1 µg/ml, 2 days). The cell viability was measured using PrestoBlue viability reagent. Data were from three independent experiments. Data points and error bars […]
(§5) (also on this page, place not known: µ g/ml,2 µ g/ml,2 Cell viability (%) Cell viability (%))

For data set [6], the system named is proximal tubular epithelial cells. The experiment in a line: Cell viability (PrestoBlue), proximal tubular epithelial cells. It counts as cell-based, murine. As to conditions: D-form ALW 1 µg/ml, 2 days. The protocol:
as §2, §3, §4, §5

As for “ALWPPNLHAWVP [D-form ALW, ALW peptide with two terminal residues A and P replaced with D-form ones]”, in data set [1], the “inhibition of anti-dsDNA IgG binding to SOCS1-KIR peptide” value was “inhibited”. Besides, the “inhibition of anti-dsDNA IgG binding to mesangial cells” value in data set [2] is on record as “inhibited”. The “resistance to catalysis by anti-dsDNA IgG” value in data set [3] is recorded as “enhanced resistance to catalysis”. Also, in data set [4], the “JAK2 protein, ALW plus anti-dsDNA IgG (consistent with mRNA decrease)” value is on record as “consistent changes”; the “SOCS1 protein level, ALW plus anti-dsDNA IgG” value is “increased”; the “STAT1 protein, ALW plus anti-dsDNA IgG (consistent with mRNA decrease)” value was “consistent changes”. In addition, the cell viability result in data set [5] is on record as “no changes”. Also, the cell viability entry in data set [6] is “no changes”.
